Data as given in BigSolDB 2.1.

CCOc1ccc2ccccc2c1C(=O)O
solubility (mole fraction)
Conditions | 278.15 K | 283.15 K | 288.15 K | 293.15 K | 298.15 K | 303.15 K | 308.15 K | 313.15 K | 318.15 K | 323.15 K
in acetone | 0.0535 | 0.0606 | 0.0691 | 0.0781 | 0.089 | 0.0994 | 0.112 | 0.127 | 0.142 | 0.159
in acetonitrile | 0.00615 | 0.00747 | 0.00921 | 0.011 | 0.0135 | 0.0165 | 0.022 | 0.0254 | 0.0308 | 0.0378
in ethanol | 0.0268 | 0.0325 | 0.0392 | 0.0469 | 0.0565 | 0.0688 | 0.0836 | 0.101 | 0.119 | 0.136
in ethyl acetate | 0.015 | 0.0174 | 0.0204 | 0.0239 | 0.0279 | 0.0331 | 0.038 | 0.0447 | 0.0526 | 0.0606
in isobutanol | 0.0111 | 0.0138 | 0.0172 | 0.0208 | 0.0256 | 0.0322 | 0.0396 | 0.0508 | 0.0623 | 0.0779
in isopropanol | 0.0148 | 0.0181 | 0.0228 | 0.0287 | 0.036 | 0.0459 | 0.058 | 0.0733 | 0.0901 | 0.112
in isopropyl acetate | 0.0118 | 0.0136 | 0.0155 | 0.0185 | 0.0213 | 0.0245 | 0.029 | 0.0333 | 0.0389 | 0.0454
in methanol | 0.0304 | 0.037 | 0.0443 | 0.0552 | 0.0671 | 0.0821 | 0.0951 | 0.114 | 0.134 | 0.151
in methyl acetate | 0.0153 | 0.0181 | 0.0215 | 0.0254 | 0.0301 | 0.0356 | 0.0417 | 0.0495 | 0.0587 | 0.0693
in n-pentanol | 0.0174 | 0.0205 | 0.0248 | 0.0296 | 0.0356 | 0.0431 | 0.052 | 0.0632 | 0.0744 | 0.0902
in n-propanol | 0.0212 | 0.0236 | 0.0283 | 0.0345 | 0.0424 | 0.0511 | 0.0632 | 0.0779 | 0.092 | 0.114
in n-propyl acetate | 0.0129 | 0.0149 | 0.0177 | 0.0204 | 0.024 | 0.028 | 0.0322 | 0.0381 | 0.0445 | 0.0516
